This passage reports GI50 and TGI results from PubChem BioAssay (NCI).

One may read the GI50 as the concentration that inhibits growth by half. As usually defined, the TGI is the concentration at which net growth stops. Read a high TGI as lower sensitivity of the cells.

Experiment in all cases: DTP human tumour cell line panel, 48 h
Experiment [1] deals with SF-295 CNS.
For experiment [2], the system named is DU-145 prostate.
In experiment [3] the test system is OVCAR-3 ovarian.
In experiment [4] the test system is SF-539 CNS.
The test system of experiment [5] is K-562 leukemia.
Experiment [6] has as its system RXF 393 renal.
In experiment [7] the test system is HCT-15 colon.
Experiment [8] has as its system NCI-H460 lung.
Experiment [9] concerns SW-620 colon.
The subject of experiment [10] is SNB-75 CNS.

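Exposure lasted 48 hours, with cells grown in 96-well plates and compounds tested at five concentrations. Abbreviation: GI50, concentration required for 50% inhibition of growth. TGI: total growth inhibition.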

Consider `O=S(=O)(Nc1ccc(F)c(Cl)c1)c1ccc(-c2cnc(C3CC3)o2)cc1`, for which the concentration for 50% growth inhibition (GI50) in experiment [1] is 0.199 µM; in experiment [2], 0.592 µM; in experiment [3] it was 0.154 µM; in experiment [4], 0.305 µM; in [5] it was 0.0623 µM; in experiment [6], 0.196 µM. Moreover, the concentration for 50% growth inhibition (GI50) in experiment [7] is 0.113 µM; in experiment [8], 0.377 µM; in [9] it was 0.159 µM; in [10] it was 0.137 µM. The total growth inhibition concentration (TGI) is 1.49 µM in experiment [1]; 12.2 µM in experiment [2]; 4.01 µM in [3]; 1.8 µM in experiment [4]; above 52.8 µM in [5]; 1.28 µM in experiment [6]. For the same molecule, the total growth inhibition concentration (TGI) worked out at 11.2 µM in experiment [7], 4.29 µM in [8], 13.9 µM in experiment [9] and 0.547 µM in experiment [10].
With `COc1ccc(/C=C\c2cc(OC)c(OC)c(OC)c2)cc1OCC(=O)Nc1ccc2nc(C)sc2c1`, the GI50 in experiment [1] is 2.45 µM; in [2], 3.81 µM; in [3], 6.32 µM; in experiment [4] it was 2.56 µM; in [5] it was 2.19 µM; in [6], 5.06 µM. The GI50 in experiment [7] was 2.8 µM; in experiment [8] it was 3.36 µM; in experiment [9], 4.7 µM; in experiment [10] it was 1.55 µM. In addition, the TGI in experiment [1] was 6.85 µM; in experiment [2], 29.7 µM; in experiment [3] it was 69.2 µM; in experiment [4], 14.6 µM; in experiment [5], above 100 µM; in experiment [6], above 100 µM. For the same molecule, the TGI in [7] amounted to 10.4 µM; in experiment [8], 33.2 µM; in [9], 31.9 µM; in [10], 7.37 µM.
For the molecule `COc1cc2c(=O)n(CCN(C)C)c3c4cc5c(cc4ccc3c2cc1OC)OCO5`, the GI50 in experiment [1] was 0.155 µM; in experiment [2], 0.199 µM; in experiment [3], 0.583 µM; in experiment [4] it was 0.181 µM; in experiment [5] it was 0.186 µM; in [6] it was 0.363 µM. In addition, the GI50 in [7] is 0.391 µM; in experiment [8], 0.123 µM; in experiment [9] it was 0.239 µM; in experiment [10], 0.23 µM. In addition, the TGI is 3.15 µM in experiment [1]; 6.27 µM in [2]; 19 µM in experiment [3]; 0.863 µM in [4]; above 11.3 µM in experiment [5]; 1.14 µM in [6]. The TGI in experiment [7] stood at 1.83 µM; in experiment [8] it was 0.592 µM; in [9], 6.87 µM; in [10] it was 5.05 µM.
Regarding `COc1cc(/C=C/c2cc(/C=C/c3ccc(O)c(OC)c3)n(C(=O)Nc3ccc(Cl)cc3)n2)ccc1O`, the GI50 in experiment [1] was 1.5 µM; in experiment [2], 0.382 µM; in experiment [3] it was 0.329 µM; in [4], 0.501 µM; in [5] it was 0.306 µM; in experiment [6] it was 0.261 µM. Further, the GI50 in experiment [7] was 0.43 µM; in experiment [8], 0.327 µM; in experiment [9] it was 0.49 µM; in experiment [10] it was 0.444 µM. The TGI was determined as 7.86 µM in experiment [1]; 1.67 µM in experiment [2]; 1.07 µM in experiment [3]; 2.41 µM in experiment [4]; 1.34 µM in experiment [5]; 0.789 µM in [6]. For the same molecule, the TGI in experiment [7] was 11.6 µM; in [8], 1.85 µM; in experiment [9] it was 2.73 µM; in experiment [10] it was 2.25 µM.
As to `C[C@]12CCNC(=O)C=C1CC[C@@H]1C2CC[C@@]2(C)C1CC[C@@H]2OC(=O)COc1ccc(N(CCCl)CCCl)cc1` (stereo not given in full), the TGI in experiment [1] came out at 30.6 µM; in [2], 22 µM; in experiment [3], 8.25 µM; in experiment [4], 9.01 µM; in [5], 46.3 µM; in [6], 18 µM. Besides, the total growth inhibition concentration (TGI) in [7] amounted to 13.1 µM; in experiment [8], 7.26 µM; in experiment [9], 16.5 µM; in [10], 47.2 µM.
On to `CC1=C(C)C2(O)C(=C(C)C1=O)/C(=C(/O)c1ccccc1)c1nc3ccccc3n12` (stereo not given), for which the GI50 in [1] is 15.5 µM; in experiment [2], 26.8 µM; in experiment [3], 12.6 µM; in experiment [4], 21.7 µM; in [5] it was 24.5 µM; in [6], 15.3 µM. Also, the GI50 in experiment [7] is 19.3 µM; in [8], 18.5 µM; in [9], 29.4 µM; in experiment [10], 11.7 µM. The TGI was 33.2 µM in experiment [1]; 68.6 µM in experiment [2]; 38.6 µM in experiment [3]; 44.5 µM in [4]; 52 µM in [5]; 34.5 µM in experiment [6]. The total growth inhibition concentration (TGI) is 46.5 µM in experiment [7], 50.8 µM in [8], above 100 µM in experiment [9] and 32.1 µM in experiment [10].
For `O=C1c2ccccc2C(=O)c2c(NCC3CO3)ccc(NCC3CO3)c21` (stereo not given), the total growth inhibition concentration (TGI) is 23.7 µM in experiment [1]; 30.2 µM in experiment [2]; 15.1 µM in experiment [3]; 6.82 µM in experiment [4]; above 100 µM in experiment [5]; 11.8 µM in experiment [6]. Also, the TGI in [7] is above 22.5 µM; in experiment [8], above 53.9 µM; in experiment [9], 6.04 µM; in experiment [10], above 100 µM.
`COc1ccc(Cn2cc3c(c2-c2ccccc2)CCc2cnoc2-3)cc1N`: the GI50 was 0.154 µM in experiment [1]; 0.21 µM in experiment [2]; 0.0526 µM in [3]; 0.158 µM in experiment [4]; 0.0452 µM in experiment [5]; 0.32 µM in experiment [6]. Also, the GI50 in experiment [7] is 0.15 µM; in [8], 0.115 µM; in [9] it was 0.0779 µM; in [10] it was 0.114 µM. Besides, the total growth inhibition concentration (TGI) was 3.28 µM in experiment [1]; 1.27 µM in experiment [2]; 0.244 µM in experiment [3]; 0.579 µM in experiment [4]; above 100 µM in [5]; above 100 µM in experiment [6]. For the same molecule, the TGI in experiment [7] was above 100 µM; in [8] it was 1.66 µM; in [9], above 100 µM; in experiment [10], 0.777 µM.
